Measured values from ChEMBL document CHEMBL3734674, “Design, Synthesis, and Evaluation of Orally Available Clioquinol-Moracin M Hybrids as Multitarget-Directed Ligands for Cognitive Improvement in a Rat Model of Neurodegeneration in Alzheimer's Disease” (J Med Chem, 2015).

What was measured:
[1] = Half life in rat liver microsomes at 100 uM after 5 to 180 mins by HPLC-UV analysis; format: ADME
[2] = Metabolic stability in rat liver microsomes after 5 to 180 mins by HPLC-UV analysis; format: ADME

Structure (SMILES) | half-life at 100 µM [1] [min] | k el [2] [s⁻¹]
COc1cc2c(cc1OC)C(=O)C(CC1CCN(Cc3ccccc3)CC1)C2 (stereo unspecified) [DONEPEZIL] | 73.3 | 0.000149
C[C@]12CC[C@H]3[C@@H](CCC4=CC(=O)CC[C@@]43C)[C@@H]1CC[C@@H]2O [TESTOSTERONE] | 2.1 | 0.00525
Oc1c(I)cc(Cl)c2cccnc12 [CLIOQUINOL] | 34.8 | 0.000331
